The supplement of paper PMC10307832

Key:
Test in all cases: relative viability (nuclei count vs DMSO), 5 days (fraction); higher = more cells survive
[1] = compound: CN(C)C/C=C/C(=O)Nc1cc2c(Nc3ccc(F)c(Cl)c3)ncnc2cc1O[C@H]1CCOC1 [Afatinib] + CS(=O)(=O)CCNCc1ccc(-c2ccc3ncnc(Nc4ccc(OCc5cccc(F)c5)c(Cl)c4)c3c2)o1 [Lapatinib] (partner 2 µM)
Summary of the method: (§1)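 Each reported value is a median over duplicate plates. It expresses relative viability: treated-well nuclei count divided by vehicle-well nuclei count. Lung cancer cell lines in 1536-well plates were dosed by pin tool a day after seeding, alone with one drug or with a fixed anchor-drug dose plus five library-drug doses (not always all listed) in √10 steps, and nuclei were counted after 5 days.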

[2] = compound: CN(C)C/C=C/C(=O)Nc1cc2c(Nc3ccc(F)c(Cl)c3)ncnc2cc1O[C@H]1CCOC1 [Afatinib] + C[C@@H](Oc1cc(-c2cnn(C3CCNCC3)c2)cnc1N)c1c(Cl)ccc(F)c1Cl [Crizotinib] (partner 1 µM)
Summary of the method: as §1

[3] = compound: CN(C)C/C=C/C(=O)Nc1cc2c(Nc3ccc(F)c(Cl)c3)ncnc2cc1O[C@H]1CCOC1 [Afatinib] + Cc1nc(Nc2ncc(C(=O)Nc3c(C)cccc3Cl)s2)cc(N2CCN(CCO)CC2)n1 [Dasatinib] (partner 0.075 µM)
Summary of the method: as §1

[4] = compound: CN(C)C/C=C/C(=O)Nc1cc2c(Nc3ccc(F)c(Cl)c3)ncnc2cc1O[C@H]1CCOC1 [Afatinib] + Nc1nc2[nH]cc(CCc3ccc(C(=O)N[C@@H](CCC(=O)O)C(=O)O)cc3)c2c(=O)[nH]1 [Pemetrexed] (partner 0.2 µM)
Summary of the method: as §1

Row | Cell Line | relative viability ([1]; first compound 0.005 µM) | relative viability ([1]; first compound 0.01581 µM) | relative viability ([1]; first compound 0.05 µM) | relative viability ([1]; first compound 0.1581 µM) | relative viability ([1]; first compound 0.5 µM) | relative viability ([2]; first compound 0.005 µM) | relative viability ([2]; first compound 0.05 µM) | relative viability ([2]; first compound 0.1581 µM) | relative viability ([2]; first compound 0.5 µM) | relative viability ([3]; first compound 0.005 µM) | relative viability ([3]; first compound 0.01581 µM) | relative viability ([3]; first compound 0.05 µM) | relative viability ([3]; first compound 0.1581 µM) | relative viability ([3]; first compound 0.5 µM) | relative viability ([4]; first compound 0.005 µM) | relative viability ([4]; first compound 0.01581 µM) | relative viability ([4]; first compound 0.05 µM) | relative viability ([4]; first compound 0.1581 µM) | relative viability ([4]; first compound 0.5 µM) | relative viability ([2]; first compound 0.01581 µM)
1 | LK-2 | 1.13 | 0.787 | 0.846 | 0.851 | 1.01 | 0.201 | 0.195 | 0.234 | 0.243 | 0.26 | 0.359 | 0.28 | 0.216 | 0.269 | 0.33 | 0.229 | 0.239 | 0.326 | 0.248 | 
2 | NCI-H661 | 0.682 | 0.469 | 0.573 | 0.454 | 0.443 | 1.25 | 0.996 | 0.838 | 0.773 | 0.858 | 0.527 | 0.375 | 0.341 | 0.332 | 0.956 | 0.861 | 0.809 | 0.616 | 0.688 | 1.03
3 | HCC-366 | 1.03 | 1.06 | 1.03 | 1.05 | 1.02 | 0.746 | 0.554 | 0.428 | 0.476 | 0.697 | 0.666 | 0.605 | 0.62 | 0.723 | 0.16 | 0.173 | 0.146 | 0.196 | 0.168 | 0.643
4 | HOP-62 | 1.12 | 1.12 | 1.11 | 1.03 | 1.09 | 1.04 | 1.11 | 1.05 | 0.969 | 0.701 | 0.639 | 0.731 | 0.648 | 0.693 | 0.305 | 0.302 | 0.328 | 0.338 | 0.292 | 0.883
5 | NCI-H1944 | 0.884 | 0.795 | 0.691 | 0.799 | 0.858 | 1.08 | 0.883 | 0.596 | 0.709 | 0.211 | 0.205 | 0.21 | 0.185 | 0.186 | 0.605 | 0.583 | 0.511 | 0.378 | 0.453 | 0.989
6 | SW 1573 | 1.03 | 1.09 | 1.14 | 1.07 | 1.27 | 0.963 | 1.01 | 0.683 | 0.75 | 0.355 | 0.438 | 0.528 | 0.475 | 0.417 | 0.747 | 0.852 | 0.86 | 0.769 | 0.861 | 0.885
7 | LU99A | 1.08 | 1.07 | 1.02 | 0.979 | 0.871 | 0.591 | 0.539 | 0.55 | 0.525 | 0.741 | 0.591 | 0.594 | 0.569 | 0.493 | 0.158 | 0.192 | 0.18 | 0.206 | 0.181 | 0.54
8 | NCI-H441 |  |  |  |  |  | 0.691 | 0.85 | 0.841 | 0.652 | 0.574 | 0.488 | 0.573 | 0.435 | 0.402 | 0.255 | 0.246 | 0.25 | 0.283 | 0.274 | 0.789
9 | EBC-1 | 0.246 | 0.196 | 0.198 | 0.195 | 0.212 | 0.193 | 0.191 | 0.189 | 0.209 |  |  |  |  |  |  |  |  |  |  | 0.174
10 | HCC-44 | 1.09 | 1.03 | 0.953 | 0.97 | 1.02 | 0.902 | 0.786 | 0.782 | 0.847 |  |  |  |  |  | 0.654 | 0.645 | 0.733 | 0.657 | 0.661 | 0.866
11 | NCI-H1648 |  |  |  |  |  |  |  |  |  |  |  |  |  |  | 0.99 | 1.1 | 0.458 | 0.431 | 0.426 | 
12 | SW 900 |  |  |  |  |  |  |  |  |  | 0.622 | 0.323 | 0.683 | 0.547 | 0.435 | 0.467 | 0.445 | 0.497 | 0.487 | 0.448 | 
13 | ABC-1 | 1.15 | 1.16 | 1.32 | 0.932 | 1.05 | 1.29 | 1.3 | 0.885 | 1.13 | 0.559 | 0.58 | 0.621 | 0.472 | 0.516 |  |  |  |  |  | 0.98
14 | NCI-H1793 | 0.679 | 0.733 | 0.962 | 0.995 | 0.467 |  |  |  |  | 0.33 | 0.341 | 0.343 | 0.361 | 0.272 | 0.814 | 0.582 | 0.584 | 0.582 | 0.503 | 
15 | NCI-H1395 | 1.13 | 0.965 | 1.22 | 1.02 | 0.897 |  |  |  |  | 0.453 | 0.408 | 0.415 | 0.404 | 0.376 | 0.951 | 0.811 | 0.827 | 0.92 | 0.752 | 
16 | NCI-H1299 | 0.98 | 0.946 | 0.973 | 0.969 | 0.96 | 1.01 | 0.983 | 0.97 | 0.934 |  |  |  |  |  |  |  |  |  |  | 0.961
17 | ChaGo-K-1 |  |  |  |  |  | 1.27 | 1.17 | 1.16 | 1.17 | 0.631 | 0.52 | 0.535 | 0.65 | 0.541 | 0.246 | 0.262 | 0.268 | 0.257 | 0.247 | 1.14
18 | NCI-H522 |  |  |  |  |  |  |  |  |  | 0.877 | 0.992 | 0.712 | 0.733 | 0.692 | 0.928 | 0.889 | 0.916 | 0.666 | 0.807 | 
19 | A549 | 0.974 | 0.979 | 1.01 | 0.893 | 0.997 | 0.995 | 0.712 | 0.695 | 0.796 |  |  |  |  |  |  |  |  |  |  | 0.655
20 | IA-LM | 0.935 | 0.867 | 0.753 | 0.828 | 0.708 | 1.12 | 1.04 | 0.74 | 1.11 |  |  |  |  |  |  |  |  |  |  | 0.728
21 | LCLC-103H |  |  |  |  |  | 1 | 1.03 | 0.911 | 1.17 | 0.424 | 0.454 | 0.48 | 0.459 | 0.483 | 0.485 | 0.478 | 0.514 | 0.492 | 0.48 | 1.14
22 | Calu-6 | 1.15 | 1.12 | 1.08 | 1.09 | 1.12 | 0.861 | 0.869 | 0.8 | 0.755 |  |  |  |  |  |  |  |  |  |  | 0.654
